Test results published in patent US6908942B2, “6-amino-2,2-dimethyl-3,4,6-trisubstituted benzopyran derivatives and their construction by parallel synthesis on solid-phase” (Korea Research Institute of Chemical Technology, priority 2002, dated 2005).
pIC50: −log10 of the molar value.

Test system: lipid peroxidation induced by iron
Assay: Inhibitory effect on iron-induced lipid peroxidation in rat brain homogenate (MDA measurement, N-methyl-2-phenylindole, Bioxytech LPO-586 Kit)
Assay type: biochemical
Settings: FeCl2 400 μM, 30 min at 37° C., decrease of MDA vs DMSO control, absorption at 586 nm
Protocol: The inhibitory effect of the present compounds on lipid peroxidation induced by iron was evaluated as follows:
Rat brain was homogenized in Krebs buffer (15 mM HEPES, 10 mM glucose, 140 mM NaCl, 3.6 mM KCl, 1.5 mM CaCl2, 1.4 mM KH2PO4 and 0.7 mM MgCl, pH 7.4) and centrifuged at 12,000 rpm to obtain the supernatant serving as a raw material of lipid. To the brain homogenates, FeCl^2 was added to give a final concentration of 400 μM and allowed to stand for 30 min at 37° C. for promoting oxidation. Each of the compounds to be tested was added to give a concentration of 12.5 μM and a control group was solely added with dimethylsulfoxide (DMSO).
When iron is added to brain homogenates, oxidation is promoted to increase the amount of malondialdehyde (MDA) as lipid peroxidation product. Therefore, in this Example, the level of lipid peroxidation was evaluated according to MDA measurement method. In general MDA measurement, the test sample is reacted with TBA (2-thiobarbituric acid) and the absorbance at 530 nm was measured. However, since such process includes a boiling step, it is unsuitable for dealing with test samples in large quantity. Therefore, in this Example, N-methyl-2-phenylindole was used as a color developing reagent in place of TBA so as to avoid boiling step. […] The inhibitory effect on lipid peroxidation of test compounds was evaluated by calculating the decreased level of MDA in percentage based on the amount of MDA in the control group. For the test compounds showing more than 80% inhibitory effect, the concentration-lipid peroxidation inhibition curves were plotted with reference to the decrease rate of MDA amount based on the amount of MDA in the control group and their IC50 values was calculated through least linear regression analysis.
In addition, the representative antioxidants commercialized such as Promethazine, Trolox, Probucol and N-propyl gallate were examined in terms of 50% inhibition concentration (IC50) according to the above procedure and the results are shown in Table 4.

| Structure (SMILES) | pIC50 |
| --- | --- |
| CCCCOC1c2cc(NC)ccc2OC(C)(C)C1OCc1ccccc1 (centres unmarked) [Compound 5-49] | 5.55 |
| CCCCOC1c2cc(NC)ccc2OC(C)(C)C1OCc1ccc(F)cc1 (centres unmarked) [Compound 5-50] | 5.31 |
| CCCCOC1c2cc(NC)ccc2OC(C)(C)C1OCc1ccc(C(C)(C)C)cc1 (centres unmarked) [Compound 5-51] | 5.28 |
| CCCCOC1c2cc(NC)ccc2OC(C)(C)C1OCc1cccc(F)c1 (centres unmarked) [Compound 5-52] | 6.01 |
| CCCCOC1c2cc(NC)ccc2OC(C)(C)C1OCc1ccccc1C (centres unmarked) [Compound 5-53] | 5.74 |
| CCCCOC1c2cc(NC)ccc2OC(C)(C)C1OCc1cccc(Cl)c1 (centres unmarked) [Compound 5-55] | 5.58 |
| CCCCOC1c2cc(NC)ccc2OC(C)(C)C1OCc1ccc(Br)cc1F (centres unmarked) [Compound 5-57] | 5.36 |
| C=CCOC1C(OCCCC)c2cc(NC)ccc2OC1(C)C (centres unmarked) [Compound 5-63] | 5.61 |
| C#CCOC1C(OCCCC)c2cc(NC)ccc2OC1(C)C (centres unmarked) [Compound 5-64] | 5.59 |
| CNc1ccc2c(c1)C(OCc1ccccc1)C(OCc1ccccc1)C(C)(C)O2 (centres unmarked) [Compound 5-65] | 5.95 |
| CNc1ccc2c(c1)C(OCc1ccccc1)C(OCc1ccc(C(C)(C)C)cc1)C(C)(C)O2 (centres unmarked) [Compound 5-67] | 5.22 |
| CCOC1c2cc(NC)ccc2OC(C)(C)C1OCc1cccc(F)c1 (centres unmarked) [Compound 5-68] | 5.86 |
| CNc1ccc2c(c1)C(OCc1ccccc1)C(OCc1ccccc1C)C(C)(C)O2 (centres unmarked) [Compound 5-69] | 5.85 |
| CNc1ccc2c(c1)C(OCc1ccccc1)C(OCc1ccccc1Cl)C(C)(C)O2 (centres unmarked) [Compound 5-70] | 5.94 |
| CNc1ccc2c(c1)C(OCc1ccccc1)C(OCc1cccc(Cl)c1)C(C)(C)O2 (centres unmarked) [Compound 5-71] | 5.77 |
| CNc1ccc2c(c1)C(OCc1ccccc1)C(OCc1ccc(C)cc1)C(C)(C)O2 (centres unmarked) [Compound 5-72] | 5.13 |
| CNc1ccc2c(c1)C(OCc1ccccc1)C(OCc1ccc(Br)cc1F)C(C)(C)O2 (centres unmarked) [Compound 5-73] | 5.55 |
| CNc1ccc2c(c1)C(OCc1ccccc1)C(OCc1ccc3ccccc3c1)C(C)(C)O2 (centres unmarked) [Compound 5-74] | 5.44 |
| CCCCCOC1C(OCc2ccccc2)c2cc(NC)ccc2OC1(C)C (centres unmarked) [Compound 5-77] | 5.60 |
| C/C=C/COC1C(OCc2ccccc2)c2cc(NC)ccc2OC1(C)C (centres unmarked) [Compound 5-78] | 5.94 |
| C=CCOC1C(OCc2ccccc2)c2cc(NC)ccc2OC1(C)C (centres unmarked) [Compound 5-79] | 6.10 |
| C#CCOC1C(OCc2ccccc2)c2cc(NC)ccc2OC1(C)C (centres unmarked) [Compound 5-80] | 5.97 |
| CNc1ccc2c(c1)C(OCCC1CCCCC1)C(OCc1ccccc1)C(C)(C)O2 (centres unmarked) [Compound 5-97] | 5.27 |
| CNc1ccc2c(c1)C(OCCC1CCCCC1)C(OCc1ccc(F)cc1)C(C)(C)O2 (centres unmarked) [Compound 5-98] | 5.28 |

| Structure (SMILES) | pIC50 |
| --- | --- |
| CNc1ccc2c(c1)C(OCCC1CCCCC1)C(OCc1cccc(F)c1)C(C)(C)O2 (centres unmarked) [Compound 5-100] | 5.41 |
| CNc1ccc2c(c1)C(OCCC1CCCCC1)C(OCc1ccccc1C)C(C)(C)O2 (centres unmarked) [Compound 5-101] | 5.22 |
| CNc1ccc2c(c1)C(OCCC1CCCCC1)C(OCc1cccc(Cl)c1)C(C)(C)O2 (centres unmarked) [Compound 5-103] | 5.29 |
| CNc1ccc2c(c1)C(OCCC1CCCCC1)C(OCc1ccc(C)cc1)C(C)(C)O2 (centres unmarked) [Compound 5-104] | 5.40 |
| CNc1ccc2c(c1)C(OCCC1CCCCC1)C(OCc1ccc3ccccc3c1)C(C)(C)O2 (centres unmarked) [Compound 5-106] | 5.26 |
| CC1(C)Oc2ccc(NCc3ccccc3)cc2C(OCc2ccccc2)C1OCc1ccccc1 (centres unmarked) [Compound 5-289] | 5.88 |
| CC1(C)Oc2ccc(NCc3ccccc3)cc2C(OCc2ccccc2)C1OCc1ccc(F)cc1 (centres unmarked) [Compound 5-290] | 5.52 |
| CC1(C)Oc2ccc(NCc3ccccc3)cc2C(OCc2ccccc2)C1OCc1cccc(F)c1 (centres unmarked) [Compound 5-292] | 5.49 |
| Cc1ccccc1COC1C(OCc2ccccc2)c2cc(NCc3ccccc3)ccc2OC1(C)C (centres unmarked) [Compound 5-293] | 5.43 |
| CC1(C)Oc2ccc(NCc3ccccc3)cc2C(OCc2ccccc2)C1OCc1cccc(Cl)c1 (centres unmarked) [Compound 5-295] | 5.89 |
| Cc1ccc(COC2C(OCc3ccccc3)c3cc(NCc4ccccc4)ccc3OC2(C)C)cc1 (centres unmarked) [Compound 5-296] | 5.23 |
| CC1(C)Oc2ccc(NCc3ccccc3)cc2C(OCc2ccccc2)C1OCc1ccc2ccccc2c1 (centres unmarked) [Compound 5-298] | 5.22 |
| COC1C(OCc2ccccc2)c2cc(NCc3ccccc3)ccc2OC1(C)C (centres unmarked) [Compound 5-300] | 5.87 |
| CC1(C)Oc2ccc(NCc3ccccc3)cc2C(OCCc2ccccc2)C1OCc1ccc(F)cc1 (centres unmarked) [Compound 5-306] | 5.39 |
| CC(C)(C)c1ccc(COC2C(OCCc3ccccc3)c3cc(NCc4ccccc4)ccc3OC2(C)C)cc1 (centres unmarked) [Compound 5-307] | 5.45 |
| CC1(C)Oc2ccc(NCc3ccccc3)cc2C(OCCc2ccccc2)C1OCc1cccc(F)c1 (centres unmarked) [Compound 5-308] | 5.32 |
| Cc1ccccc1COC1C(OCCc2ccccc2)c2cc(NCc3ccccc3)ccc2OC1(C)C (centres unmarked) [Compound 5-309] | 5.54 |
| CC1(C)Oc2ccc(NCc3ccccc3)cc2C(OCCc2ccccc2)C1OCc1ccccc1Cl (centres unmarked) [Compound 5-310] | 5.96 |
| CC1(C)Oc2ccc(NCc3ccccc3)cc2C(OCCc2ccccc2)C1OCc1ccccc1Cl (centres unmarked) [Compound 5-311] | 5.92 |
| Cc1ccc(COC2C(OCCc3ccccc3)c3cc(NCc4ccccc4)ccc3OC2(C)C)cc1 (centres unmarked) [Compound 5-312] | 5.38 |
| CC1(C)Oc2ccc(NCc3ccccc3)cc2C(OCCc2ccccc2)C1OCc1ccc(Br)cc1F (centres unmarked) [Compound 5-313] | 5.84 |
| CC1(C)Oc2ccc(NCc3ccccc3)cc2C(OCCc2ccccc2)C1OCc1cc(C(F)F)cc(C(F)(F)F)c1 (centres unmarked) [Compound 5-315] | 5.46 |
| C/C=C/COC1C(OCCc2ccccc2)c2cc(NCc3ccccc3)ccc2OC1(C)C (centres unmarked) [Compound 5-318] | 5.28 |
| C#CCOC1C(OC)c2cc(NCc3ccc(F)cc3)ccc2OC1(C)C (centres unmarked) [Compound 5-464] | 5.42 |

| Structure (SMILES) | pIC50 |
| --- | --- |
| CCOC1c2cc(NCc3ccc(F)cc3)ccc2OC(C)(C)C1OCc1ccccc1 (centres unmarked) [Compound 5-465] | 5.19 |
| CCOC1c2cc(NCc3ccc(F)cc3)ccc2OC(C)(C)C1OCc1ccc(F)cc1 (centres unmarked) [Compound 5-466] | 5.92 |
| CCOC1c2cc(NCc3ccc(F)cc3)ccc2OC(C)(C)C1OCc1ccc(C(C)(C)C)cc1 (centres unmarked) [Compound 5-467] | 5.44 |
| CCOC1c2cc(NCc3ccc(F)cc3)ccc2OC(C)(C)C1OCc1cccc(F)c1 (centres unmarked) [Compound 5-468] | 5.37 |
| CCOC1c2cc(NCc3ccc(F)cc3)ccc2OC(C)(C)C1OCc1ccccc1C (centres unmarked) [Compound 5-469] | 5.36 |
| CCOC1c2cc(NCc3ccc(F)cc3)ccc2OC(C)(C)C1OCc1ccccc1Cl (centres unmarked) [Compound 5-470] | 5.38 |
| CCOC1c2cc(NCc3ccc(F)cc3)ccc2OC(C)(C)C1OCc1cccc(Cl)c1 (centres unmarked) [Compound 5-471] | 5.31 |
| CCOC1c2cc(NCc3ccc(F)cc3)ccc2OC(C)(C)C1OCc1ccc(C)cc1 (centres unmarked) [Compound 5-472] | 5.41 |
| CCOC1c2cc(NCc3ccc(F)cc3)ccc2OC(C)(C)C1OCc1ccc(Br)cc1F (centres unmarked) [Compound 5-473] | 5.57 |
| CCOC1c2cc(NCc3ccc(F)cc3)ccc2OC(C)(C)C1OCc1ccc2ccccc2c1 (centres unmarked) [Compound 5-474] | 5.46 |
| CCOC1c2cc(NCc3ccc(F)cc3)ccc2OC(C)(C)C1OC (centres unmarked) [Compound 5-476] | 5.87 |
| CCCCCOC1C(OCC)c2cc(NCc3ccc(F)cc3)ccc2OC1(C)C (centres unmarked) [Compound 5-477] | 5.44 |
| C/C=C/COC1C(OCC)c2cc(NCc3ccc(F)cc3)ccc2OC1(C)C (centres unmarked) [Compound 5-478] | 5.21 |
| C#CCOC1C(OCC)c2cc(NCc3ccc(F)cc3)ccc2OC1(C)C (centres unmarked) [Compound 5-480] | 5.26 |
| Cc1ccccc1COC1C(OC(C)C)c2cc(NCc3ccc(F)cc3)ccc2OC1(C)C (centres unmarked) [Compound 5-485] | 5.58 |
| CC(C)OC1c2cc(NCc3ccc(F)cc3)ccc2OC(C)(C)C1OCc1ccccc1Cl (centres unmarked) [Compound 5-486] | 6.04 |
| CC(C)OC1c2cc(NCc3ccc(F)cc3)ccc2OC(C)(C)C1OCc1ccc2ccccc2c1 (centres unmarked) [Compound 5-490] | 5.65 |
| C=CCOC1C(OC(C)C)c2cc(NCc3ccc(F)cc3)ccc2OC1(C)C (centres unmarked) [Compound 5-495] | 5.69 |
| C/C=C/COC1C(OCCCC)c2cc(NCc3ccc(F)cc3)ccc2OC1(C)C (centres unmarked) [Compound 5-510] | 5.02 |
| C=CCOC1C(OCCCC)c2cc(NCc3ccc(F)cc3)ccc2OC1(C)C (centres unmarked) [Compound 5-511] | 6.92 |
| C#CCOC1C(OCCCC)c2cc(NCc3ccc(F)cc3)ccc2OC1(C)C (centres unmarked) [Compound 5-512] | 5.44 |
| CC1(C)Oc2ccc(NCc3ccc(F)cc3)cc2C(OCc2ccccc2)C1OCc1ccc(F)cc1 (centres unmarked) [Compound 5-514] | 5.62 |
| CC1(C)Oc2ccc(NCc3ccc(F)cc3)cc2C(OCc2ccccc2)C1OCc1cccc(Cl)c1 (centres unmarked) [Compound 5-519] | 5.34 |
